Measured values: US10407414B2, “Mannose derivatives for treating bacterial infections” (priority 2015, dated 2019)

Test system: bacterial strain LF82 binding to the glycoprotein BSA-(Mannose)3 (FimH antagonists)
Test: Bacterial Binding Assay (BBA)
Format: cell-based, Escherichia coli
Conditions: read-out: Bacterial Binding Assay IC50 ± SEM
Excerpt: The purpose of the Bacterial Binding Assay (BBA) is to determine the inhibition activity of selective FimH antagonists on the bacterial strain LF82 binding to the glycoprotein BSA-(Mannose)3.
Below is a list of the Materials used to run the BBA are described below. • 1. LB broth: Supplier: Gibco, #10855 • 2. D-PBS: Supplier: Wisent, #311-425-CL • 3. LB agar plates • 4. 96-well black plate (high binding): Supplier: Costar, #3925 • 5. TopSeal™-A adhesive sealing films; Supplier PerkinElmer, #6005185 • 6. Carbonate-bicarbonate buffer pH 9.6 tablets, Supplier: Medicago, #09-8922-24 • 7. Water, Supplier: Gibco, #15230-162 • 8. Bovine serum albumin (BSA): Supplier: Sigma, #A-7888 • 9. (Man)3-BSA (α1-3, α1-6 Mannotriose-BSA, 1 mg), V-Labs, #NGP1336, lot# HGDX37-169-1 • 10. Tween 20: Supplier: Sigma, #P9416 • 11. Bright-Glo Luciferase Assay System: Supplier: Promega, #E2610 • 12. LF82/Luciferase strain: Invasive ability of an Escherichia coli strain isolated from the ileal mucosa of a patient with Crohn's disease. Boudeau J, Glasser A L, Masseret E, Joly B, Darfeuille-Michaud A, Infect Immun. 1999, 67(9), 4499-509
Solutions and buffers used to run the BBA are described below. • 1. 0.04M carbonate-bicarbonate buffer (coating buffer) • 2. 40 μg/mL BSA-(Man)3: Dissolve 1 mg of (Man)3-BSA in 25 mL of water. • 3. 4000 μg/mL BSA • 4. 40 μg/mL BSA • 5. 1 μg/mL BSA-(Man)3: 150 μL of 40 μg/mL BSA-(Man)3+5.85 mL of 40 μg/mL BSA • 6. 0.5 μg/mL BSA-(Man)3 in 0.02M carbonate-bicarbonate buffer. • 7. 20 μg/mL BSA in 0.02M carbonate-bicarbonate buffer • 8. Blocking buffer (2% BSA/DPBS): 1 g of BSA in 50 mL D-PBS • 9. 2× binding buffer (0.2% BSA/D-PBS): 5 mL of blocking buffer+45 mL D-PBS. • 10. Washing buffer (D-PBS/0.01% Tween 20): 10 μL of Tween 20 in 100 mL D-PBS. • 11. 1× Bright-Glo Luciferase substrate: Dilute 1:1 the Bright-Glo Luciferase Assay System with D-PBS
The experimental protocol used in this example to run the BBA is described below.
Overnight culture of LF82/Luciferase strain: Into two Falcon 50 mL tubes, add 20 mL of LB+20 μL of 50 mg/mL Kanamycin and inoculate with a loop from glycerol stock of the LF82/Luciferase strain. Incubate overnight at 37° C. with no shaking.
Glycoprotein coating of 96-well plates: Add 100 μL/well of 0.5-2 μg/mL BSA-(Man)3. 20 μg/mL BSA is used as the control background. Seal plate using an adhesive sealing film and incubate overnight at room temperature. Wash the 96-well plate three times with 150 μL/well of D-PBS, add 170 μL/well of blocking solution and incubate 45 min (minimum) at room temperature.
Preparation of bacterial suspension: Mix the two cultures tubes (40 mL) and perform a 1:10 dilution in LB (900 μl LB+100 μl culture. Measure optical density (OD) of the bacterial cultures. OD1 ˜5×10^8 cells/mL. Centrifuge LF82 culture for 20 min at 3500 rpm at room temperature. Re-suspend bacterial pellet in D-PBS and centrifuge again for 20 min at 3500 rpm. Re-suspend bacterial pellet in D-PBS to obtain a bacterial concentration of 2×10^9 bacteria/mL. Dilute 1/10 in D-PBS to obtain a final bacterial concentration of 2×10^8 bacteria/mL (=107 bacteria/50 μL). Perform 1/10 serial dilutions in LB of each bacterial suspension, plate 10 μL of dilutions on LB agar plates (final dilutions of 10^−7) and incubate overnight at 37° C. and count CFUs to determine the actual bacteria density in the assay.
Bacterial binding assay: Add 147 μL 2× binding buffer to compound plate (containing 3 μL of compound). After blocking step is performed (at least 45 min), wash plates three times with 200 μL/well of D-PBS. With a 100 μL multichannel manual pipettor, add 50 μL/well of compound diluted in 2× binding buffer. With a 100 μL multichannel manual pipettor, add 50 μL/well of bacterial suspension. Agitate at slow speed for 1 min and incubate 40-75 min at room temperature. Wash 5 times with 150 μL/well of washing buffer and then once with D-PBS. Add 100 μL/well of 1× Bright-Glo Luciferase substrate. […]

Row | SMILES | IC50 [nM]
1 | CCCCc1cc(C#C[C@H]2O[C@H](CO)[C@@H](O)[C@H](O)[C@@H]2O)c2[nH]ncc2c1 [Compound 24, (2R,3S,4R,5S,6R)-2-[2-(5-butyl-1H-indazol-7-yl)ethynyl]-6-(hydroxymethyl)tetrahydropyran-3,4,5-triol] | 1 ± 0.2
2 | OC[C@H]1O[C@H](C#Cc2cc(-c3ccccc3)cc3cn[nH]c23)[C@@H](O)[C@@H](O)[C@@H]1O [Compound 25, (2R,3S,4R,5S,6R)-2-(hydroxymethyl)-6-[2-(5-phenyl-1H-indazol-7-yl)ethynyl]tetrahydropyran-3,4,5-triol] | 0.4 ± 0.04
3 | Cc1ccccc1-c1cc(C#C[C@H]2O[C@H](CO)[C@@H](O)[C@H](O)[C@@H]2O)c2[nH]ncc2c1 [Compound 26] | 0.7 ± 0.3
4 | OC[C@H]1O[C@H](C#Cc2cc(-c3cccnc3)cc3cn[nH]c23)[C@@H](O)[C@@H](O)[C@@H]1O [Compound 27, (2R,3S,4R,5S,6R)-2-(hydroxymethyl)-6-[2-[5-(3-pyridyl)-1H-indazol-7-yl]ethynyl]tetrahydropyran-3,4,5-triol] | 0.2 ± 0.03
5 | O=[N+]([O-])c1ccc(-c2cc(C#C[C@H]3O[C@H](CO)[C@@H](O)[C@H](O)[C@@H]3O)c3[nH]ncc3c2)cc1 [Compound 28, (2R,3S,4R,5S,6R)-2-(hydroxymethyl)-6-[2-[5-(4-nitrophenyl)-1H-indazol-7-yl]ethynyl]tetrahydropyran-3,4,5-triol] | 0.6 ± 0.4
6 | CN(C)c1ccc(-c2cc(C#C[C@H]3O[C@H](CO)[C@@H](O)[C@H](O)[C@@H]3O)c3[nH]ncc3c2)cc1 [Compound 29, (2R,3S,4R,5S,6R)-2-[2-[5-[4-(dimethylamino)phenyl]-1H-indazol-7-yl]ethynyl]-6-(hydroxymethyl)tetrahydropyran-3,4,5-triol] | 1 ± 0.7
7 | COc1ccc(-c2cc(C#C[C@H]3O[C@H](CO)[C@@H](O)[C@H](O)[C@@H]3O)c3[nH]ncc3c2)cc1 [Compound 30, (2R,3S,4R,5S,6R)-2-(hydroxymethyl)-6-[2-[5-(4-methoxyphenyl)-1H-indazol-7-yl]ethynyl]tetrahydropyran-3,4,5-triol] | 0.5 ± 0.2
8 | NC(=O)c1cccc(-c2cc(C#C[C@H]3O[C@H](CO)[C@@H](O)[C@H](O)[C@@H]3O)c3[nH]ncc3c2)c1 [Compound 31, 3-[7-[2-[(2R,3S,4R,5S,6R)-3,4,5-trihydroxy-6-(hydroxymethyl)tetrahydropyran-2-yl]ethynyl]-1H-indazol-5-yl]benzamide] | 0.7 ± 0.01
9 | OC[C@H]1O[C@H](C#Cc2cc(-c3ccc4nccn4c3)cc3cn[nH]c23)[C@@H](O)[C@@H](O)[C@@H]1O [Compound 32, (2R,3S,4R,5S,6R)-2-(hydroxymethyl)-6-[2-(5-imidazo[1,2-a]pyridin-6-yl-1H-indazol-7-yl)ethynyl]tetrahydropyran-3,4,5-triol] | 0.6 ± 0.005
10 | Cn1cnc2ccc(-c3cc(C#C[C@H]4O[C@H](CO)[C@@H](O)[C@H](O)[C@@H]4O)c4[nH]ncc4c3)cc21 [Compound 33, (2R,3S,4R,5S,6R)-2-(hydroxymethyl)-6-[2-[5-(3-methylbenzimidazol-5-yl)-1H-indazol-7-yl]ethynyl]tetrahydropyran-3,4,5-triol] | 0.4 ± 0.05
11 | Cc1cnccc1-c1cc(C#C[C@H]2O[C@H](CO)[C@@H](O)[C@H](O)[C@@H]2O)c2[nH]ncc2c1 [Compound 34, (2R,3S,4R,5S,6R)-2-(hydroxymethyl)-6-[2-[5-(3-methyl-4-pyridyl)-1H-indazol-7-yl]ethynyl]tetrahydropyran-3,4,5-triol] | 0.4 ± 0.09
12 | CS(=O)(=O)c1ccc(-c2cc(C#C[C@H]3O[C@H](CO)[C@@H](O)[C@H](O)[C@@H]3O)c3[nH]ncc3c2)cc1 [Compound 35, (2R,3S,4R,5S,6R)-2-(hydroxymethyl)-6-[2-[5-(4-methylsulfonylphenyl)-1H-indazol-7-yl]ethynyl]tetrahydropyran-3,4,5-triol] | 0.5 ± 0.1
13 | CC(=O)Nc1cccc(-c2cc(C#C[C@H]3O[C@H](CO)[C@@H](O)[C@H](O)[C@@H]3O)c3[nH]ncc3c2)c1 [Compound 36, N-[3-[7-[2-[(2R,3S,4R,5S,6R)-3,4,5-trihydroxy-6-(hydroxymethyl)tetrahydropyran-2-yl]ethynyl]-1H-indazol-5-yl]phenyl]acetamide] | 2 ± 0.2
14 | OC[C@H]1O[C@H](C#Cc2cc(-c3ccc4c(c3)OCO4)cc3cn[nH]c23)[C@@H](O)[C@@H](O)[C@@H]1O [Compound 37, (2R,3S,4R,5S,6R)-2-[2-[5-(1,3-benzodioxol-5-yl)-1H-indazol-7-yl]ethynyl]-6-(hydroxymethyl)tetrahydropyran-3,4,5-triol] | 0.7 ± 0.02
15 | COc1cccc(-c2cc(C#C[C@H]3O[C@H](CO)[C@@H](O)[C@H](O)[C@@H]3O)c3[nH]ncc3c2)c1 [Compound 38, (2R,3S,4R,5S,6R)-2-(hydroxymethyl)-6-[2-[5-(3-methoxyphenyl)-1H-indazol-7-yl]ethynyl]tetrahydropyran-3,4,5-triol] | 0.8 ± 0.5
16 | Cc1nnc(-c2ccc(-c3cc(C#C[C@H]4O[C@H](CO)[C@@H](O)[C@H](O)[C@@H]4O)c4[nH]ncc4c3)cc2)o1 [Compound 39, (2R,3S,4R,5S,6R)-2-(hydroxymethyl)-6-[2-[5-[4-(5-methyl-1,3,4-oxadiazol-2-yl)phenyl]-1H-indazol-7-yl]ethynyl]tetrahydropyran-3,4,5-triol] | 0.2 ± 0.05
17 | OC[C@H]1O[C@H](C#Cc2cc(-c3ccc4cc[nH]c4c3)cc3cn[nH]c23)[C@@H](O)[C@@H](O)[C@@H]1O [Compound 40, (2R,3S,4R,5S,6R)-2-(hydroxymethyl)-6-[2-[5-(1H-indol-6-yl)-1H-indazol-7-yl]ethynyl]tetrahydropyran-3,4,5-triol] | 1 ± 0.3
18 | NS(=O)(=O)c1cccc(-c2cc(C#C[C@H]3O[C@H](CO)[C@@H](O)[C@H](O)[C@@H]3O)c3[nH]ncc3c2)c1 [Compound 41, 3-[7-[2-[(2R,3S,4R,5S,6R)-3,4,5-trihydroxy-6-(hydroxymethyl)tetrahydropyran-2-yl]ethynyl]-1H-indazol-5-yl]benzenesulfonamide] | 0.4 ± 0.04
19 | CNC(=O)c1cncc(-c2cc(C#C[C@H]3O[C@H](CO)[C@@H](O)[C@H](O)[C@@H]3O)c3[nH]ncc3c2)c1 [Compound 42, N-methyl-5-[7-[2-[(2R,3S,4R,5S,6R)-3,4,5-trihydroxy-6-(hydroxymethyl)tetrahydropyran-2-yl]ethynyl]-1H-indazol-5-yl]pyridine-3-carboxamide] | 0.6 ± 0.2
20 | OC[C@H]1O[C@H](C#Cc2cc(C#CC3CC3)cc3cn[nH]c23)[C@@H](O)[C@@H](O)[C@@H]1O [Compound 43, (2R,3S,4R,5S,6R)-2-[2-[5-(2-cyclopropylethynyl)-1H-indazol-7-yl]ethynyl]-6-(hydroxymethyl)tetrahydropyran-3,4,5-triol] | 2 ± 1
21 | CC(C)(C)C#Cc1cc(C#C[C@H]2O[C@H](CO)[C@@H](O)[C@H](O)[C@@H]2O)c2[nH]ncc2c1 [Compound 44, (2R,3S,4R,5S,6R)-2-[2-[5-(3,3-dimethylbut-1-ynyl)-1H-indazol-7-yl]ethynyl]-6-(hydroxymethyl)tetrahydropyran-3,4,5-triol] | 5 ± 0.5
